Patent publication US5254731A, “Substituted 3,4-dihydronaphthalenes, pharmaceutical compositions containing them, and preparation processes” (Gruenenthal GmbH, priority 1991, dated 1993)

Experiments:
[1] = system: endotoxin/galactosamine-induced hepatitis; assay: endotoxin/galactosamine-induced hepatitis in mice (septic shock model); assay type: in vivo, mouse; settings: for shock mortality: endotoxin/galactosamine-induced hepatitis model; for Inhibition of increase of the enzymatic activity of GPT / Inhibition of increase of the enzymatic activity of SDH: i.p., 10 mg/kg for each of five administrations, serum, 8 hours after endotoxin
Experimental: To evaluate the effects of compounds according to the invention on septic shock, endotoxin/galactosamine-induced hepatitis in mice was used as test model. […] Intraperitoneal administration of compounds of formula I 30 minutes before, simultaneously with, and 2, 4 and 6 hours after administration of the endotoxin inhibits the hepatitis-induced increase of the activities of these enzymes in the serum. On administration of compounds of formula I in doses of 10 mg/kg for each of the five administrations, the following percentage inhibitions of the increase of the enzymatic activities of GPT and SDH were achieved (the increase of enzymatic activities in control animals who had been treated five times with a solution containing 1% by weight of sodium carboxymethylcellulose was set at 100%): […]

[2] = system: bronchoconstriction elicited by ovalbumin; assay: anti-asthmatic effect: ovalbumin-elicited bronchoconstriction in anesthetized, passively sensitized guinea pigs; assay type: in vivo, guinea pig; settings: Cavia porcellus, 1 h; oral, 60 minutes before ovalbumin 0.2 mg/kg i.v.; read-out: ED40 (40% average inhibition of the bronchoconstriction elicited by ovalbumin)
Experimental: The anti-asthmatic effect of compounds according to the invention was tested in anesthetized and ventilated guinea pigs. To induce an asthmatic reaction, the animals were passively sensitized by a single intraperitoneal injection of anti-ovalbumin serum. After 48 hours the asthmatic reaction was elicited by intravenous challenge with 0.2 mg/kg of ovalbumin. The immediately resulting bronchoconstriction was measured as an increase in intratracheal pressure. Effects caused by histamine, serotonin and sympathic counterreaction were eliminated by intravenous pretreatment with 2.15 mg/kg of mepyramine, 46.4 mg/kg of propranolol, 4.64 mg/kg of atropine and 1 mg/kg of methysergide, all administered 5 minutes before challenge. Substituted 3,4-dihydronaphthalenes were orally administered 60 minutes before the administration of ovalbumin.

[3] = comparative compounds of formula A, aforementioned test model
[4] = comparative compound, aforementioned test model

| SMILES | Inhibition of increase of the enzymatic activity of GPT [1] | Inhibition of increase of the enzymatic activity of SDH [1] | ED40 [2] | also measured |
| --- | --- | --- | --- | --- |
| CC(=O)N(O)CC1=Cc2ccc(OCc3ccccc3)cc2CC1 [Example A2, reference compound] |  |  |  | inhibition of GPT [1, 3]: 16%; inhibition of SDH [1, 3]: 32%; shock mortality [1]: no detectable influence on shock mortality |
| COc1ccc2c(c1)CCC(C(C)N(O)C(C)=O)=C2 (stereo not drawn) [Example 2, N-[1-(6-methoxy-3,4-dihydronaphth-2-yl)ethyl]acetohydroxamic acid] | 56% | 69% |  |  |
| NC(=O)N(O)CC1=Cc2ccc(OCc3ccccc3)cc2CC1 [Example A1, reference compound] |  |  |  | inhibition of GPT (in words) [1, 4]: did not cause either an inhibition of GPT; inhibition of SDH (in words) [1, 4]: did not cause either an inhibition of GPT and SDH; shock mortality [1]: did not cause either an inhibition of GPT and SDH or a decrease in the shock mortality |
| COc1ccc2c(c1)CCC(CN(O)C(C)=O)=C2 [Example 1, N-[(6-methoxy-3,4-dihydronaphth-2-yl)methyl]acetohydroxamic acid] | 54% | 41% |  |  |
| COc1ccc2c(c1)CCC(CN(O)C(N)=O)=C2 [Example 3, N-hydroxy-N-[(6-methoxy-3,4-dihydronaphth-2-yl)methyl]urea] | 78% | 57% | 33.5 mg/kg |  |
| CC(=O)N(O)CC1=Cc2ccc(OC3CCCC3)cc2CC1 [Example 6a, N-[(6-cyclopentyloxy 3,4-dihydronaphth 2 yl)methyl]acetohydroxamic acid] |  |  | 275 mg/kg |  |
| CC(C)Oc1ccc2c(c1)CCC(CN(O)C(N)=O)=C2 [Example 6e, N-hydroxy-N-[(6-isopropoxy-3,4-dihydronaphth-2-yl)methyl]urea] |  |  | 368 mg/kg |  |
